Laboratory results reported in patent US20130303575A1, “ADMINISTRATION OF AN INHIBITOR OF HDAC” (priority 2007, published 2013).
Like-named read-outs stand apart in the source and are kept apart here.

Assay: Plasma pharmacokinetics of oral SNDX-275 in patients with advanced and refractory solid tumors or lymphoma (Example 2)
Assay type: in vivo
Conditions: human; for Cmax / AUC / Tmax / half-life: plasma, oral
Procedure: The initial dosing schedule was daily oral administration for 28 days and 14-day recovery period, constituting a 42-day cycle. […] Samples were immediately centrifuged at 3000 g for 10 minutes at 4° C. and then plasma was divided into two aliquots of at least 1 mL and frozen at −70° C. until the time of analysis. Plasma samples were assayed by a specific and sensitive high-performance liquid chromatographic assay with mass-spectrometric detection. […] The pharmacokinetic parameters of interest included peak plasma concentration (Cmax), time to peak concentration (Tmax), area under the plasma concentration versus time curve extrapolated to infinity (AUC), apparent oral clearance (CL/F), and the terminal half-life (T1/2, z). The peak plasma concentrations (Cmax) and the time to peak plasma concentrations (Tmax) were the observed values. The area under the plasma concentration versus time curve (AUC) was calculated using the linear trapezoidal method from time zero to the time of the final quantifiable concentration (AUCtf). The AUC was then extrapolated to infinity (AUCinf) by dividing the last measured concentration by the rate constant of the terminal phase (k), which was determined by linear-regression analysis of the final three or four time points of the ling-linear concentration time plot. […] Deviations of β from 1 correspond to deviations from ideal dose proportionality. […] All PK data are presented as mean±SD, except where otherwise indicated. […] One-way analysis of variance was performed to compare mean values using a two-sided Dunnett's test. Statistical calculations were performed using the Number Cruncher Statistical System 2001 series (J. L. Hintze, Kaysville, Utah). The cut-off for statistical significance was considered at P<0.05.

With Nc1ccccc1NC(=O)c1ccc(CNC(=O)OCc2cccnc2)cc1 [SNDX-275, N-(2-aminophenyl) 4-[N-(pyrid-3-yl)methyloxycarbonylaminomethyl]benzamide] the “interpatient variability in clearance, comparison for body-surface area correction” value (in vivo) was 39.5%, the Cmax (2 mg/m2, 2 mg/m^2, q14-day, first dose, fed, 3 patients) was 1.72 ng/mL and the AUC (2 mg/m2, 2 mg/m^2, q14-day, first dose, fed, 3 patients, read-out: AUC Mean) was 196 ng·h/mL. It also gave a Tmax (2 mg/m2, 2 mg/m^2, q14-day, first dose, fed, 3 patients, read-out: Tmax Median) of 6 h, a half-life (2 mg/m2, 2 mg/m^2, q14-day, first dose, fed, 3 patients, read-out: t1/2 Mean (converted)) of 80.2 h and a Cmax (4 mg/m2, 4 mg/m^2, q14-day, first dose, fed, 3 patients) of 4.84 ng/mL. For the same compound, the AUC (4 mg/m2, 4 mg/m^2, q14-day, first dose, fed, 3 patients, read-out: AUC Mean) was 392 ng·h/mL, the Tmax (4 mg/m2, 4 mg/m^2, q14-day, first dose, fed, 3 patients, read-out: Tmax Median) was 6 h and the half-life (4 mg/m2, 4 mg/m^2, q14-day, first dose, fed, 3 patients, read-out: t1/2 Mean (converted)) was 50.5 h. The Cmax (6 mg/m2, 6 mg/m^2, q14-day, first dose, fed, 6 patients) was 9.59 ng/mL, the AUC (6 mg/m2, 6 mg/m^2, q14-day, first dose, fed, 6 patients, read-out: AUC Mean) was 493 ng·h/mL and the Tmax (6 mg/m2, 6 mg/m^2, q14-day, first dose, fed, 6 patients, read-out: Tmax Median) was 2 h. The half-life (6 mg/m2, 6 mg/m^2, q14-day, first dose, fed, 6 patients, read-out: t1/2 Mean (converted)) was 52.8 h, the Cmax (8 mg/m2, 8 mg/m^2, q14-day, first dose, fed, 5 patients) was 15.5 ng/mL and the AUC (8 mg/m2, 8 mg/m^2, q14-day, first dose, fed, 5 patients, read-out: AUC Mean) was 358 ng·h/mL. For the same compound, the Tmax (8 mg/m2, 8 mg/m^2, q14-day, first dose, fed, 5 patients, read-out: Tmax Median) was 2 h, the half-life (8 mg/m2, 8 mg/m^2, q14-day, first dose, fed, 5 patients, read-out: t1/2 Mean (converted)) was 39.7 h and the Cmax (10 mg/m2, 10 mg/m^2, q14-day, first dose, fed, 6 patients) was 45.1 ng/mL. For the same compound, the AUC (10 mg/m2, 10 mg/m^2, q14-day, first dose, fed, 6 patients, read-out: AUC Mean) was 529 ng·h/mL, the Tmax (10 mg/m2, 10 mg/m^2, q14-day, first dose, fed, 6 patients, read-out: Tmax Median) was 1.5 h and the half-life (10 mg/m2, 10 mg/m^2, q14-day, first dose, fed, 6 patients, read-out: t1/2 Mean (converted)) was 51.6 h. It also gave a Cmax (12 mg/m2, 12 mg/m^2, q14-day, first dose, fed, 4 patients) of 132 ng/mL, an AUC (12 mg/m2, 12 mg/m^2, q14-day, first dose, fed, 4 patients, read-out: AUC Mean) of 680 ng·h/mL and a Tmax (12 mg/m2, 12 mg/m^2, q14-day, first dose, fed, 4 patients, read-out: Tmax Median) of 0.5 h. The half-life (12 mg/m2, 12 mg/m^2, q14-day, first dose, fed, 4 patients, read-out: t1/2 Mean (converted)) was 45 h, the Tmax (all doses 2 to 12 mg/m^2, q14-day, read-out: Tmax Grand median) was 1.75 h and the half-life (all doses 2 to 12 mg/m^2, q14-day, read-out: t1/2 Grand mean (apparent terminal half-life) (converted)) was 51.7 ± 21.6 h. It also gave a half-life (bi-exponential decline, read-out: T1/2 in plasma (converted)) of ~50 h, a half-life (half-life of SNDX-275 in humans, preliminary PK analysis) of 39 to 80 h and a Tmax (in some patients, read-out: earliest Tmax observed (converted)) of 0.5 h. It also gave an AUC (n=4, FIG. 6, read-out: mean AUC in patients experiencing DLTs) of 517 ± 276 ng·h/mL, an AUC (n=23, FIG. 6, read-out: mean AUC in patients without DLT) of 280 ± 121 ng·h/mL and a Tmax (q14-day schedule, read-out: median Tmax) of ~2 h.
